# Laboratory results from ChEMBL document CHEMBL1201862, “PubChem BioAssay data set” (2004).
#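 A five-concentration, 48-hour dose response in 96-well plates underlies each endpoint, interpolated linearly between surrounding concentrations. GI50: concentration for 50% inhibition of growth.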 Active and inactive are the calls of the source. Cut-off read from the data, not from the text of the source: active = GI50 up to about 1.1 µM and inactive = higher.
# How the values were obtained:
# Assay in all cases: DTP human tumour cell line panel, 48 h
# 786-0 = system: 786-0
# A498 = system: A498
# A549 = system: A549
# ACHN = system: ACHN
# BT-549 = system: BT-549
# CAKI-1 = system: CAKI-1
# CCRF-CEM = system: CCRF-CEM
# COLO 205 = system: COLO 205
# DU-145 = system: DU-145
# EKVX = system: EKVX
# HCC 2998 = system: HCC 2998
# HCT-116 = system: HCT-116
# HCT-15 = system: HCT-15
# HL-60 = system: HL-60
# HOP-62 = system: HOP-62
# HOP-92 = system: HOP-92
# HT-29 = system: HT-29
# Hs-578T = system: Hs-578T
# IGROV-1 = system: IGROV-1
# K562 = system: K562
# KM12 = system: KM12
# LOX IMVI = system: LOX IMVI
# M14 = system: M14
# MCF7 = system: MCF7
# MDA-MB-231 = system: MDA-MB-231
# MDA-MB-435 = system: MDA-MB-435
# MDA-N = system: MDA-N
# MOLT-4 = system: MOLT-4
# Malme-3M = system: Malme-3M
# NCI-H226 = system: NCI-H226
# NCI-H23 = system: NCI-H23
# NCI-H460 = system: NCI-H460
# NCI-H522 = system: NCI-H522
# NCI/ADR-RES = system: NCI/ADR-RES
# OVCAR-3 = system: OVCAR-3
# OVCAR-4 = system: OVCAR-4
# OVCAR-5 = system: OVCAR-5
# OVCAR-8 = system: OVCAR-8
# PC-3 = system: PC-3
# RPMI-8226 = system: RPMI-8226
# RXF 393 = system: RXF 393
# SF-268 = system: SF-268
# SF-295 = system: SF-295
# SF-539 = system: SF-539
# SK-MEL-28 = system: SK-MEL-28
# SK-MEL-2 = system: SK-MEL-2
# SK-MEL-5 = system: SK-MEL-5
# SK-OV-3 = system: SK-OV-3
# SN12C = system: SN12C
# SNB-19 = system: SNB-19
# SNB-75 = system: SNB-75
# SR = system: SR
# SW-620 = system: SW-620
# T47D = system: T47D
# TK-10 = system: TK-10
# U-251 = system: U-251
# UACC-257 = system: UACC-257
# UACC-62 = system: UACC-62
# UO-31 = system: UO-31
# DMS-114 = system: DMS-114
# KM-20L2 = system: KM-20L2
# LXFL 529 = system: LXFL 529
# M19-MEL = system: M19-MEL
# SNB-78 = system: SNB-78
smiles,measurement,setting,value
O=[N+]([O-])c1c(F)c(F)c2c(c1F)N(CCCCCl)c1ccccc1S2,GI50,786-0,9.02 µM (inactive)
same,GI50,A498,8.81 µM (inactive)
same,GI50,A549,14.4 µM (inactive)
same,GI50,ACHN,16.5 µM (inactive)
same,GI50,BT-549,14.6 µM (inactive)
same,GI50,CAKI-1,6.98 µM (inactive)
same,GI50,CCRF-CEM,2.38 µM (inactive)
same,GI50,COLO 205,14.4 µM (inactive)
same,GI50,DU-145,13.2 µM (inactive)
same,GI50,EKVX,21.7 µM (inactive)
same,GI50,HCC 2998,2.86 µM (inactive)
same,GI50,HCT-116,5.05 µM (inactive)
same,GI50,HCT-15,1.6 µM
same,GI50,HL-60,2.44 µM (inactive)
same,GI50,HOP-62,14.3 µM (inactive)
same,GI50,HOP-92,16.4 µM (inactive)
same,GI50,HT-29,2.54 µM (inactive)
same,GI50,Hs-578T,24.8 µM (inactive)
same,GI50,IGROV-1,2.27 µM (inactive)
same,GI50,K562,2.05 µM (inactive)
same,GI50,KM12,10.5 µM (inactive)
same,GI50,LOX IMVI,1.58 µM (inactive)
same,GI50,M14,4.83 µM (inactive)
same,GI50,MCF7,3.61 µM (inactive)
same,GI50,MDA-MB-231,7.89 µM (inactive)
same,GI50,MDA-MB-435,7.71 µM (inactive)
same,GI50,MDA-N,15 µM (inactive)
same,GI50,MOLT-4,2.77 µM (inactive)
same,GI50,Malme-3M,16.6 µM (inactive)
same,GI50,NCI-H226,17.7 µM (inactive)
same,GI50,NCI-H23,7.91 µM (inactive)
same,GI50,NCI-H460,5.01 µM (inactive)
same,GI50,NCI-H522,4.9 µM (inactive)
same,GI50,NCI/ADR-RES,17.5 µM (inactive)
same,GI50,OVCAR-3,7.01 µM (inactive)
same,GI50,OVCAR-4,8.57 µM (inactive)
same,GI50,OVCAR-5,18.8 µM (inactive)
same,GI50,OVCAR-8,3.16 µM (inactive)
same,GI50,PC-3,6.05 µM (inactive)
same,GI50,RPMI-8226,3.47 µM (inactive)
same,GI50,RXF 393,13.8 µM (inactive)
same,GI50,SF-268,6.04 µM (inactive)
same,GI50,SF-295,16.6 µM (inactive)
same,GI50,SF-539,17.2 µM (inactive)
same,GI50,SK-MEL-28,5.9 µM (inactive)
same,GI50,SK-MEL-2,3.63 µM (inactive)
same,GI50,SK-MEL-5,12.2 µM (inactive)
same,GI50,SK-OV-3,19.7 µM (inactive)
same,GI50,SN12C,7.5 µM (inactive)
same,GI50,SNB-19,7.69 µM (inactive)
same,GI50,SNB-75,6.46 µM (inactive)
same,GI50,SR,1.89 µM (inactive)
same,GI50,SW-620,4.05 µM (inactive)
same,GI50,T47D,12.4 µM (inactive)
same,GI50,TK-10,16.9 µM (inactive)
same,GI50,U-251,12.7 µM (inactive)
same,GI50,UACC-257,11.4 µM (inactive)
same,GI50,UACC-62,13.9 µM (inactive)
same,GI50,UO-31,16.9 µM (inactive)
O=C(NNC(=O)c1ccccc1S)c1ccccc1S [BIS(THIOSALICYL)HYDRAZIDE],GI50,786-0,9.42 µM (inactive)
same,GI50,A498,> 100 µM (inactive)
same,GI50,A549,14.3 µM (inactive)
same,GI50,ACHN,10.8 µM (inactive)
same,GI50,BT-549,9.38 µM (inactive)
same,GI50,CAKI-1,6.93 µM (inactive)
same,GI50,CCRF-CEM,1.24 µM (inactive)
same,GI50,COLO 205,11.1 µM (inactive)
same,GI50,DU-145,20.6 µM (inactive)
same,GI50,EKVX,8.34 µM (inactive)
same,GI50,HCC 2998,5.96 µM (inactive)
same,GI50,HCT-116,6.79 µM (inactive)
same,GI50,HCT-15,6.03 µM
same,GI50,HL-60,8.79 µM (inactive)
same,GI50,HOP-62,15.9 µM (inactive)
same,GI50,HOP-92,> 25 µM (inactive)
same,GI50,HT-29,8.47 µM (inactive)
same,GI50,Hs-578T,45 µM (inactive)
same,GI50,IGROV-1,7.29 µM (inactive)
same,GI50,K562,14.6 µM (inactive)
same,GI50,KM12,24.5 µM (inactive)
same,GI50,LOX IMVI,9.84 µM (inactive)
same,GI50,M14,10.3 µM (inactive)
same,GI50,MCF7,10 µM (inactive)
same,GI50,MDA-MB-231,> 25 µM (inactive)
same,GI50,MDA-MB-435,14.6 µM (inactive)
same,GI50,MDA-N,18.2 µM (inactive)
same,GI50,MOLT-4,7.11 µM (inactive)
same,GI50,Malme-3M,23.7 µM (inactive)
same,GI50,NCI-H226,15.5 µM (inactive)
same,GI50,NCI-H23,11.1 µM (inactive)
same,GI50,NCI-H460,9.29 µM (inactive)
same,GI50,NCI-H522,0.0154 µM (active)
same,GI50,NCI/ADR-RES,11.3 µM (inactive)
same,GI50,OVCAR-3,9.14 µM (inactive)
same,GI50,OVCAR-4,15.6 µM (inactive)
same,GI50,OVCAR-5,12.4 µM (inactive)
same,GI50,OVCAR-8,12 µM (inactive)
same,GI50,PC-3,32.1 µM (inactive)
same,GI50,RPMI-8226,18.4 µM (inactive)
same,GI50,RXF 393,22.6 µM (inactive)
same,GI50,SF-268,11.2 µM (inactive)
same,GI50,SF-295,10.3 µM (inactive)
same,GI50,SF-539,11.7 µM (inactive)
same,GI50,SK-MEL-28,> 25 µM (inactive)
same,GI50,SK-MEL-2,43.9 µM (inactive)
same,GI50,SK-MEL-5,23 µM (inactive)
same,GI50,SK-OV-3,> 25 µM (inactive)
same,GI50,SN12C,13.6 µM (inactive)
same,GI50,SNB-19,23.4 µM (inactive)
same,GI50,SNB-75,18 µM (inactive)
same,GI50,SR,13.5 µM (inactive)
same,GI50,SW-620,11.6 µM (inactive)
same,GI50,T47D,10.8 µM (inactive)
same,GI50,TK-10,> 25 µM (inactive)
same,GI50,U-251,15.1 µM (inactive)
same,GI50,UACC-257,13.8 µM (inactive)
same,GI50,UACC-62,9.27 µM (inactive)
same,GI50,UO-31,8.43 µM (inactive)
CCN(CC)CCNc1ccc(CO)c2sc3ccccc3c(=O)c12 [HYCANTHONE],GI50,A498,8.22 µM (inactive)
same,GI50,A549,6.85 µM (inactive)
same,GI50,CAKI-1,5.92 µM (inactive)
same,GI50,DMS-114,11.5 µM (inactive)
same,GI50,EKVX,13.7 µM (inactive)
same,GI50,HCT-116,4.8 µM (inactive)
same,GI50,KM-20L2,5.37 µM (inactive)
same,GI50,LXFL 529,12.7 µM (inactive)
same,GI50,M19-MEL,13 µM (inactive)
same,GI50,MOLT-4,2.79 µM (inactive)
same,GI50,NCI-H226,13.9 µM (inactive)
same,GI50,NCI-H23,> 10 µM (inactive)
same,GI50,NCI-H460,4.04 µM (inactive)
same,GI50,NCI-H522,4.04 µM (inactive)
same,GI50,OVCAR-4,5.37 µM (inactive)
same,GI50,OVCAR-5,12.5 µM (inactive)
same,GI50,OVCAR-8,6.37 µM (inactive)
same,GI50,RPMI-8226,10.8 µM (inactive)
same,GI50,SF-268,8.89 µM (inactive)
same,GI50,SF-295,7.14 µM (inactive)
same,GI50,SF-539,11.2 µM (inactive)
same,GI50,SK-MEL-28,16.8 µM (inactive)
same,GI50,SNB-19,9.51 µM (inactive)
same,GI50,SNB-78,12.7 µM (inactive)
same,GI50,SR,3.18 µM (inactive)
same,GI50,SW-620,5.48 µM (inactive)
same,GI50,U-251,10.5 µM (inactive)
same,GI50,UACC-257,15.8 µM (inactive)
same,GI50,UACC-62,19.5 µM (inactive)
same,GI50,UO-31,6.58 µM (inactive)
